Among the test systems are Serratia rubidaea X01; Yersinia pestis KIM pYV; Staphylococcus aureus; Candida albicans 820; Escherichia coli ML-35; Candida albicans; Escherichia coli UB1005; Escherichia coli mcr106; Enterococcus faecium; Klebsiella pneumoniae; Escherichia coli BAS 849; Escherichia coli ML-35p.
Holding throughout (assay): ≥ marks a high value that may be exact or a test limit, other limits are often not marked, values filed in µg/mL are converted to µM
The test system of assay [1] is Rhodococcus rhodochrous X15.
For assay [2], the system named is Staphylococcus carnosus KHS.
In assay [3] the test system is Candida albicans ATCC 2002.
Assay [4] relates to Psychrobacter faecalis X29.
In assay [5] the test system is Staphylococcus aureus ATCC 2592.
The test system of assay [6] is Bacillus licheniformis X39.
For assay [7], the system named is Staphylococcus aureus ΔmprF.
Assay [8] has as its system Escherichia coli ATCC 25922.
Assay [9] deals with Staphylococcus aureus ATCC 43300.
In assay [10] the test system is Staphylococcus aureus SA113.
Assay [11] relates to Bordetella bronchiseptica CUN 11844-99.
Assay [12] relates to Brucella abortus 9.49 (per-).
Assay [13] concerns Acinetobacter baumannii ATCC 19606.
In assay [14] the test system is Escherichia coli ATCC 23716.
The test system of assay [15] is Pseudomonas aeruginosa CUN 4158-02.
In assay [16] the test system is Staphylococcus aureus ΔmprFpRBsyn.
In assay [17] the test system is Listeria monocytogenes EGD.
Assay [18] deals with Staphylococcus aureus ATCC 25923.
Assay [19] deals with Salmonella enterica serovar Typhimurium.
Assay [20] relates to Pseudomonas aeruginosa 253.
Assay [21] concerns Pseudomonas aeruginosa PAO1.
The test system of assay [22] is Pseudomonas aeruginosa 910.
Assay [23] concerns Enterococcus faecalis ATCC 29212.
Assay [24] deals with Pseudomonas aeruginosa 919.
Assay [25] has as its system Staphylococcus epidermidis.
The subject of assay [26] is Pseudomonas aeruginosa H103.
Assay [27] has as its system Pseudomonas aeruginosa MR3007.
Assay [28] concerns Pseudomonas aeruginosa MR2123.
Assay [29] deals with Staphylococcus aureus 930918-3.
For assay [30], the system named is Enterococcus faecium 94-132.
In assay [31] the test system is Pseudomonas aeruginosa SBI-N.
In assay [32] the test system is Staphylococcus aureus 30371.
Assay [33] concerns Salmonella enterica subsp. enterica serovar Typhimurium ATCC 14028s.
Assay [34] deals with Salmonella enterica serovar typhimurium MS7953s.
Assay [35] concerns Staphylococcus aureus 28841.
In assay [36] the test system is Enterococcus faecalis CDC 21.

The structures appear in SMILES notation. Converted amounts (≈) assume the structure as drawn.

Broadly, the MIC is the smallest concentration in the dilution series that meets the test's criterion for growth inhibition. Read a high MIC as a less susceptible organism.

On to `CC[C@H](C)[C@H](NC(=O)[C@H](CCC(=O)O)NC(=O)[C@H](CCCCN)NC(=O)[C@H](C)NC(=O)[C@H](C)NC(=O)[C@@H](NC(=O)[C@H](CCCCN)NC(=O)CNC(=O)[C@H](Cc1ccccc1)NC(=O)[C@H](CC(=O)O)NC(=O)[C@H](CCCCN)NC(=O)[C@H](CC(C)C)NC(=O)[C@@H](NC(=O)[C@H](CO)NC(=O)[C@H](CCSC)NC(=O)[C@H](CC(C)C)NC(=O)CN)[C@@H](C)O)[C@@H](C)O)C(=O)N[C@@H](C)C(=O)N[C@@H](CCC(N)=O)C(=O)N[C@@H](CO)C(=O)N[C@@H](CC(C)C)C(=O)N[C@@H](CC(C)C)C(=O)N[C@@H](CO)C(=O)N[C@H](C(=O)N[C@@H](C)C(=O)N[C@@H](CO)C(=O)N[C@H]1CSSC[C@@H](C(=O)O)NC(=O)[C@H]([C@@H](C)O)NC(=O)[C@H](CCCCN)NC(=O)[C@H](C)NC(=O)[C@H](CC(C)C)NC(=O)[C@H](CCCCN)NC1=O)[C@@H](C)O` [GLMSTLKDFGKTAAKEIAQSLLSTASCKLAKTC], for which the MIC in assay [1] is 0.468 µM (≈ 1.6 µg/mL); in assay [2], 1.84 µM (≈ 6.3 µg/mL); in assay [3], not below 58.5 µM; in the assay on Serratia rubidaea X01, 29.3 µM (≈ 99.9 µg/mL); in assay [4], 1.84 µM (≈ 6.3 µg/mL); in [5] it was 3.66 µM (≈ 12.5 µg/mL). The molecule further registered an MIC in [6] of 14.6 µM (≈ 50 µg/mL).

Take `CC[C@H](C)[C@H](NC(=O)[C@H](CCCN=C(N)N)NC(=O)[C@H](CCCCN)NC(=O)[C@H](CO)NC(=O)[C@@H](NC(=O)[C@@H](N)CCCCN)[C@@H](C)CC)C(=O)N[C@@H](CC(C)C)C(=O)N[C@H](C(=O)NCC(=O)N[C@@H](CCCCN)C(=O)N[C@@H](CCCCN)C(N)=O)[C@@H](C)O` [KISKRILTGKK]: the MIC in assay [7] was not below 201 µM; in assay [8], more than 201 µM; in assay [9], more than 201 µM; in [10] it was not below 201 µM; in assay [11] it was not below 201 µM; in [12] it was not below 201 µM. In addition, the MIC is not below 201 µM with Yersinia pestis KIM pYV; more than 201 µM in assay [13]; not below 201 µM in [14]; not below 201 µM in assay [15]; more than 201 µM against Staphylococcus aureus; not below 201 µM in assay [16].

Consider `CC[C@H](C)[C@@H]1NC(=O)[C@@H]2CSSC[C@H](NC(=O)[C@H](Cc3ccc(O)cc3)NC(=O)[C@@H](NC(=O)[C@H](CC(C)C)NC(=O)[C@H](CCCNC(=N)N)NC(=O)CNC(=O)CNC(=O)[C@@H](N)CCCNC(=N)N)CSSC[C@@H](C(=O)N[C@H](C(N)=O)C(C)C)NC1=O)C(=O)N[C@@H](CCCNC(=N)N)C(=O)N[C@@H](CCCNC(=N)N)C(=O)N[C@@H](CCCNC(=N)N)C(=O)N[C@@H](Cc1ccccc1)C(=O)N2` [RGGRLCYCRRRFCICV], for which the MIC (in [17]; with Candida albicans 820; in the assay on Escherichia coli ML-35) was 12.7 µM (≈ 24.9 µg/mL) in each case.

For the molecule `CC[C@H](C)[C@H](NC(=O)[C@H](CCCN=C(N)N)NC(=O)[C@H](C)NC(=O)[C@H](CC(C)C)NC(=O)[C@@H](N)CCCN=C(N)N)C(=O)N[C@H](C(=O)N[C@H](C(=O)N[C@H](C(=O)N[C@@H](CCCN=C(N)N)C(=O)N[C@H](C(=O)N[C@@H](CCCN=C(N)N)C(=O)N[C@@H](CCCN=C(N)N)C(N)=O)C(C)C)[C@@H](C)CC)C(C)C)C(C)C` [RLARIVVIRVRR], the MIC in [18] is 5.31 µM (≈ 8 µg/mL); in assay [19], 5.31 µM (≈ 8 µg/mL); in assay [20] it was not below 64 µM; in assay [21] it was 16 µM (≈ 24.1 µg/mL); against Candida albicans, 5.31 µM (≈ 8 µg/mL); in [22], not below 64 µM. The MIC in assay [23] is 5.31 µM (≈ 8 µg/mL); in assay [24], not below 32 µM; in assay [25] it was 1.33 µM (≈ 2 µg/mL); in the assay on Escherichia coli UB1005, 5.31 µM (≈ 8 µg/mL); in assay [26] it was 10.6 µM (≈ 16 µg/mL).

Regarding `CC[C@H](C)[C@H](NC(=O)[C@H](CCCCN)NC(=O)CNC(=O)[C@H](CC(C)C)NC(=O)[C@H](Cc1ccccc1)NC(=O)[C@H](CCC(N)=O)NC(=O)[C@H](Cc1ccccc1)NC(=O)[C@@H](N)C(C)C)C(=O)N[C@H](C(=O)N[C@@H](CCCCN)C(=O)N[C@@H](CCCCN)C(=O)N[C@H](C(=O)NCC(=O)N[C@@H](CC(N)=O)C(=O)N[C@@H](Cc1ccccc1)C(=O)N[C@H](C(=O)N[C@@H](CCCCN)C(=O)NCC(=O)N[C@@H](Cc1ccccc1)C(=O)N[C@@H](CO)C(=O)N[C@@H](CCCCN)C(=O)N[C@H](C(=O)N[C@@H](Cc1ccccc1)C(=O)O)C(C)C)C(C)C)C(C)C)[C@@H](C)CC` [VFQFLGKIIKKVGNFVKGFSKVF], the MIC in assay [27] stood at 0.342 µM (≈ 0.9 µg/mL); in the assay with Escherichia coli mcr106, 0.266 µM (≈ 0.7 µg/mL); in [28], 0.266 µM (≈ 0.7 µg/mL); in [17], 0.152 µM (≈ 0.4 µg/mL); in assay [29] it was 1.48 µM (≈ 3.9 µg/mL); in assay [30], 0.114 µM (≈ 0.3 µg/mL). The MIC in [31] amounted to 0.342 µM (≈ 0.9 µg/mL); in assay [32], 2.2 µM (≈ 5.8 µg/mL); in assay [33], 0.57 µM (≈ 1.5 µg/mL); against Enterococcus faecium, 0.19 µM (≈ 0.5 µg/mL); in assay [34], 0.494 µM (≈ 1.3 µg/mL); in [35], 0.95 µM (≈ 2.5 µg/mL). The MIC in assay [36] was 0.988 µM (≈ 2.6 µg/mL); in the assay on Klebsiella pneumoniae it was 1.06 µM (≈ 2.8 µg/mL); against Escherichia coli BAS 849, 0.266 µM (≈ 0.7 µg/mL); in the assay with Escherichia coli ML-35p, 0.494 µM (≈ 1.3 µg/mL).

Source of the values: DBAASP.
